Experimental data published in US8177896B2, “Antifouling furan-2-one derivatives” (The Hong Kong University of Science and Technology, priority 2008, dated 2012).
Values after ≈ are worked out from the molar mass of the structure shown. Where two headings read alike, the source gives them in different places.

Legend:
[1] = Larval settlement bioassay, barnacle Balanus amphitrite cyprids; type: in vivo; settings: Balanus amphitrite (barnacle), cyprid larvae, in vivo, other: immersion, sample added to the seawater in the well
Experimental: (§1) The nauplii were reared in freshly filtered nature seawater (FSW, 0.45 μm, 32 S salinity) and fed with Chaetoceros gracilis Schutt at 24° C. in the Coastal Marine Laboratory the Hong Kong University of Science and Technology (HKUST). Cyprids were stored for 2 days at 8° C. (aged cyprids) prior to being used in the bioassays. Ten μl of each test sample dissolved in dimethyl sulfoxide (DMSO) were transferred into a well in 24-well polystyrene plate after the addition of 1 ml of FSW. The control wells contained 1 ml of FSW and 10 μl of DMSO. About 15 cyprids were added in each well with triplicate samples being tested.

[2] = tested on: Balanus amphitrite larvae; test: as above; type: in vivo; settings: for inhibition of larval settlement (in words) / concentration at which significant inhibition of larval settlement was observed: B. amphitrite; for toxicity rating from LC50/EC50 ratio: according to Avelin et al. 1993 and Rittschof et al. 1994, ratios for all tested larvae; for concentration at which significant inhibition of larval settlement was observed: compared with controls
Experimental: as §1

[3] = Larval settlement bioassay, Hydroides elegans competent larvae; type: in vivo; settings: competent larvae, in vivo, other: immersion, sample added to the seawater in the well; Hydroides elegans; highest concentration examined causing <50% death of larvae
Experimental: (§2) The 24-well plates were incubated at 28° C. for 24 h under a 15 h light/9 h dark photoperiod. The percentage of larval settlement and larval mortality was determined by counting the settled, live individuals under a dissecting microscope and expressing the result as a proportion of the total number of larvae in the well.

Hydroides elegans larvae = test: as above; type: in vivo; settings: for inhibition of larval settlement (in words) / concentration at which significant inhibition of larval settlement was observed: H. elegans; for EC50: Hydroides elegans, 24 h, mean of at least three replicates, read-out: EC50 against larval settlement; for concentration at which significant inhibition of larval settlement was observed: compared with controls
Experimental: as §2

Bugula neritina larvae = test: Larval settlement bioassay, Bugula neritina; settings: for inhibition of larval settlement (in words): B. neritina
[4] = Degradation in buffer solutions and seawater; type: physicochemical
in vivo = settings: Bugula neritina, larvae
[5] = Balanus amphitrite, highest concentration examined causing <50% death of larvae
[6] = Table 3, Balanus amphitrite larvae
[7] = Amphibalanus amphitrite, 24 h, Balanus amphitrite, 24 h, mean of at least three replicates, read-out: EC50 against larval settlement
[8] = Amphibalanus amphitrite, Table 3, Balanus amphitrite larvae, value ± spread, read-out: EC50
[9] = Table 3, Balanus amphitrite larvae, value ± spread

For `CC(CCCCCC1C=CC(=O)O1)C(C)OC1CCCCO1` (centres unmarked) [Compound 5], the LC50 at 24 h [1, 5] was > 80 µg/mL, the LC50 at 24 h [1, 6] was > 80 µg/mL and the EC50 [2, 7] was 3.6 µg/mL (≈ 11.6 µM). For the same compound, the EC50 [2, 8] was 3.6 ± 0.56 µg/mL (≈ 11.6 µM), the “inhibition of larval settlement (in words)” value (shortened to “inhibition … (in words)”) [2] was “distinct inhibition effects” and the “toxicity rating from LC50/EC50 ratio” value [2] was “nontoxic or low toxic compound”. For the same compound, the LC50 at 24 h [3] was > 100 µg/mL, the “inhibition … (in words)” value (Hydroides elegans larvae) was “distinct inhibition effects” and the EC50 (Hydroides elegans larvae) was 6.4 µg/mL (≈ 20.6 µM). The “inhibition … (in words)” value (Bugula neritina larvae) was “distinct inhibition effects”.

For `CC(C)(O)CCCCCC1C=CC(=O)O1` (centres unmarked) [Compound 4], the LC50 at 24 h [1, 5] was > 140 µg/mL, the LC50 at 24 h [1, 6] was > 140 µg/mL and the EC50 [2, 7] was > 100 µg/mL. The EC50 [2, 8] was > 100 µg/mL, the “inhibition … (in words)” value [2] was “efficient against the larval settlements especially for B. amphitrite” and the LC50 at 24 h [3] was > 40 µg/mL. The “concentration at which significant inhibition of larval settlement was observed” value (Hydroides elegans larvae) was 8 µg/mL and the EC50 (Hydroides elegans larvae) was 12.7 µg/mL (≈ 59.8 µM).

In the case of `CC(O)C(C)(O)CCCC1C=CC(=O)O1` (centres unmarked) [Compound 9], the LC50 [2, 6] is reported as >100 µg/mL and the EC50 [2, 9] is reported as >100 µg/mL.

With `CC(O)C(C)CCCCCC1C=CC(=O)O1` (centres unmarked) [Compound 2] the LC50 at 24 h [1, 5] was > 100 µg/mL, the LC50 at 24 h [1, 6] was > 100 µg/mL and the EC50 [2, 7] was 9.65 µg/mL (≈ 42.6 µM). For the same compound, the EC50 [2, 8] was 9.65 ± 1.5 µg/mL (≈ 42.6 µM), the “concentration at which significant inhibition of larval settlement was observed” value [2] was 10 µg/mL and the LC50 at 24 h [3] was > 100 µg/mL. For the same compound, the “concentration at which significant inhibition of larval settlement was observed” value (Hydroides elegans larvae) was 5 µg/mL and the EC50 (Hydroides elegans larvae) was 4.4 µg/mL (≈ 19.4 µM).

With `CC(O)C(C)(O)CCCC1C=CC(=O)O1` (single isomer, unassigned) [Compound 11] the LC50 at 24 h [1, 6] was > 100 µg/mL and the EC50 [2, 8] was > 100 µg/mL.

For `CCCCCCCCC1C=CC(=O)O1` (centres unmarked) [Compound 6, 5-octylfuran-2-one], the LC50 at 24 h [1, 5] was > 50 µg/mL, the LC50 at 24 h [1, 6] was > 50 µg/mL and the EC50 [2, 7] was 0.52 µg/mL (≈ 2.65 µM). For the same compound, the EC50 [2, 8] was 0.52 ± 0.06 µg/mL (≈ 2.65 µM), the “inhibition … (in words)” value [2] was “distinct inhibition effects” and the “toxicity rating from LC50/EC50 ratio” value [2] was “nontoxic or low toxic compound”. For the same compound, the LC50 at 24 h [3] was > 2 µg/mL, the “inhibition … (in words)” value (Hydroides elegans larvae) was “distinct inhibition effects” and the EC50 (Hydroides elegans larvae) was 0.017 µg/mL (≈ 0.0866 µM). The “degradation in natural seawater” value [4] was “can be easily degradated in natural seawater”, the LC50 (in vivo) was > 50 µg/mL and the “inhibition … (in words)” value (Bugula neritina larvae) was “distinct inhibition effects”. The “EC50 against larval settlement” value (Bugula neritina larvae; Bugula neritina, mean of at least three replicates) was 0.2 µg/mL (≈ 1.02 µM).

For `CCC(C)(O)CCCCCC1C=CC(=O)O1` (centres unmarked) [Compound 1], the LC50 at 24 h [1, 5] was > 100 µg/mL, the LC50 at 24 h [1, 6] was > 100 µg/mL and the EC50 [2, 7] was 14.8 µg/mL (≈ 65.4 µM). For the same compound, the EC50 [2, 8] was 14.8 ± 5.54 µg/mL (≈ 65.4 µM), the “concentration at which significant inhibition of larval settlement was observed” value [2] was 10 µg/mL and the LC50 at 24 h [3] was > 100 µg/mL. For the same compound, the “concentration at which significant inhibition of larval settlement was observed” value (Hydroides elegans larvae) was 10 µg/mL and the EC50 (Hydroides elegans larvae) was 12 µg/mL (≈ 53 µM).

For `CC(O)C(C)(O)CCCC1C=CC(=O)O1` (centres unmarked) [Compound 8], the LC50 [2, 6] was >100 µg/mL and the EC50 [2, 9] was >100 µg/mL.

In the case of `CC(O)C(C)(O)CCCC1C=CC(=O)O1` (centres unmarked) [Compound 10], the LC50 [2, 6] is reported as >100 µg/mL and the EC50 [2, 9] is reported as >100 µg/mL.

In the case of `CC(O)C(C)(O)CCCC1C=CC(=O)O1` (centres unmarked) [Compound 7], the LC50 [2, 6] is reported as >25 µg/mL and the EC50 [2, 9] is reported as 4.82 ± 1.25 µg/mL (≈ 22.5 µM).

In the case of `CC(=O)C(C)CCCCCC1C=CC(=O)O1` (centres unmarked) [Compound 3], the LC50 at 24 h [1, 5] is reported as > 100 µg/mL, the LC50 at 24 h [1, 6] is reported as > 100 µg/mL and the EC50 [2, 7] is reported as 8.67 µg/mL (≈ 38.7 µM). For the same compound, the EC50 [2, 8] was 8.67 ± 2.73 µg/mL (≈ 38.7 µM), the “concentration at which significant inhibition of larval settlement was observed” value [2] was 25 µg/mL and the LC50 at 24 h [3] was > 100 µg/mL. The “concentration at which significant inhibition of larval settlement was observed” value (Hydroides elegans larvae) was 5 µg/mL and the EC50 (Hydroides elegans larvae) was 5.6 µg/mL (≈ 25 µM).
